Data from PubChem BioAssay AID330 (DTP/NCI, 2004).
Several values for one entry are separate records, joined by “and”; a condition that tells them apart may be missing. Equal entries are not always repeated. Toxic doses and inconclusive results are not listed. The calls were made as follows: active = survival T/C of 150% or more; inactive = T/C below 125% in these data.

Test system: P388 leukemia ip, CD2F1 mice, survival T/C
Experiment: NCI In Vivo Anticancer Drug Screen. Data for tumor model P388 Leukemia (intraperitoneal) in CD2F1 (CDF1) mice
Conditions: endpoint: median survival time, higher = longer survival
In short: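 Mice carrying the transplanted tumor received test compound or vehicle. Survival was recorded in each group, and the value is the treated-group measurement divided by that of the vehicle-treated control group.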

[1] = dose: 50.0 mg/kg/injection, schedule: Q01DX009 (ip), vehicle: saline
[2] = dose: 100.0 mg/kg/injection, schedule: Q01DX009 (ip), vehicle: saline
[3] = dose: 200.0 mg/kg/injection, schedule: Q01DX009 (ip), vehicle: saline
[4] = dose: 60.0 mg/kg/injection, schedule: Q01DX005 (ip), vehicle: Klucel (hydroxypropylcellulose) (HPC)
[5] = dose: 120.0 mg/kg/injection, schedule: Q01DX005 (ip), vehicle: Klucel (hydroxypropylcellulose) (HPC)
[6] = dose: 60.0 mg/kg/injection, schedule: Q01DX005 (ip), vehicle: saline with Tween-80
[7] = dose: 120.0 mg/kg/injection, schedule: Q01DX005 (ip), vehicle: saline with Tween-80
[8] = dose: 240.0 mg/kg/injection, schedule: Q01DX005 (ip), vehicle: saline with Tween-80
[9] = dose: 100.0 mg/kg/injection, schedule: Q01DX001 (ip), vehicle: saline with Tween-80
[10] = dose: 200.0 mg/kg/injection, schedule: Q01DX001 (ip), vehicle: saline with Tween-80

Measured: T/C

S=C(Nc1ccc(Cl)c(Cl)c1)SC1CCCCC1
inactive: dose: 25.0 mg/kg/injection, schedule: Q01DX009 (ip), vehicle: saline 107 % of control | [1] 91 % of control | dose: 50.0 mg/kg/injection, schedule: Q01DX009 (ip), vehicle: suspension in saline 105 % of control | [2] 100 % of control | dose: 100.0 mg/kg/injection, schedule: Q01DX009 (ip), vehicle: suspension in saline 115 % of control | [3] 123 % of control | dose: 200.0 mg/kg/injection, schedule: Q01DX009 (ip), vehicle: suspension in saline 120 % of control

COc1ccc(-c2ccc(Cc3ccc(-c4ccc(OC)cc4)o3)o2)cc1
inactive: dose: 50.0 mg/kg/injection, schedule: Q01DX005 (ip), vehicle: saline with Tween-80 94 % of control | dose: 100.0 mg/kg/injection, schedule: Q01DX005 (ip), vehicle: saline with Tween-80 91 % of control | dose: 200.0 mg/kg/injection, schedule: Q01DX005 (ip), vehicle: saline with Tween-80 91 % of control

O=C(Nc1ccc2cc(S(=O)(=O)O)ccc2c1)c1ccc(N=Nc2c(S(=O)(=O)O)cc3cc(S(=O)(=O)O)cc(NC(=O)c4ccccc4)c3c2O)cc1
inactive: dose: 25.0 mg/kg/injection, schedule: Q01DX009 (ip), vehicle: saline with Tween-80 108 % of control | dose: 25.0 mg/kg/injection, schedule: Q04DX003 (ip), vehicle: saline with Tween-80 91 % of control | dose: 50.0 mg/kg/injection, schedule: Q01DX009 (ip), vehicle: saline with Tween-80 108 % of control | dose: 50.0 mg/kg/injection, schedule: Q04DX003 (ip), vehicle: saline with Tween-80 87 % of control | dose: 100.0 mg/kg/injection, schedule: Q01DX009 (ip), vehicle: saline with Tween-80 87 % of control | dose: 100.0 mg/kg/injection, schedule: Q04DX003 (ip), vehicle: saline with Tween-80 95 % of control

COc1cc(C[C@H]2[C@H]([C@H](O)c3ccc4c(c3)OCO4)C(=O)O[C@@H]2CO)cc(OC)c1OC
inactive: dose: 5.0 mg/kg/injection, schedule: Q04DX002 (ip), vehicle: saline with Tween-80 105 % of control | dose: 10.0 mg/kg/injection, schedule: Q04DX002 (ip), vehicle: saline with Tween-80 102 % of control | dose: 20.0 mg/kg/injection, schedule: Q04DX002 (ip), vehicle: saline with Tween-80 102 % of control

COc1ccc(C2OC(=N)C(=S)N2C)cc1O (centres undefined)
inactive: [4] 112 % of control | [5] 109 % of control | dose: 240.0 mg/kg/injection, schedule: Q01DX005 (ip), vehicle: Klucel (hydroxypropylcellulose) (HPC) 112 % of control

OCC1OC(O)C(Cl)(Cl)C(O)C1O (centres undefined)
inactive: [1] 107 % of control | [2] 117 % of control | [3] 112 % of control

COC(=O)c1nc(N)nc(C(=O)OC)c1C(=O)c1ccco1
inactive: [4] 101 % of control | [5] 103 % of control

C=C1C(=O)OC2/C=C(\COC(C)=O)CC/C=C(/COC(=O)C(C)CC)CC(O)C12 (centres undefined) (tested in a mixture with another compound)
inactive: dose: 2.0 mg/kg/injection, schedule: Q01DX009 (ip), vehicle: Klucel (hydroxypropylcellulose) (HPC) 119 % of control | dose: 4.0 mg/kg/injection, schedule: Q01DX009 (ip), vehicle: Klucel (hydroxypropylcellulose) (HPC) 114 % of control | dose: 8.0 mg/kg/injection, schedule: Q01DX009 (ip), vehicle: Klucel (hydroxypropylcellulose) (HPC) 113 % of control | dose: 16.0 mg/kg/injection, schedule: Q01DX009 (ip), vehicle: Klucel (hydroxypropylcellulose) (HPC) 111 % of control | dose: 32.0 mg/kg/injection, schedule: Q01DX009 (ip), vehicle: Klucel (hydroxypropylcellulose) (HPC) 120 % of control

COC(=O)Cn1ccnc1[N+](=O)[O-]
inactive: dose: 12.5 mg/kg/injection, schedule: Q01DX009 (ip), vehicle: distilled water + Tween-80 100 % of control | dose: 25.0 mg/kg/injection, schedule: Q01DX009 (ip), vehicle: distilled water + Tween-80 93 % of control | dose: 50.0 mg/kg/injection, schedule: Q01DX009 (ip), vehicle: distilled water + Tween-80 93 % of control | dose: 100.0 mg/kg/injection, schedule: Q01DX009 (ip), vehicle: distilled water + Tween-80 93 % of control | dose: 200.0 mg/kg/injection, schedule: Q01DX009 (ip), vehicle: distilled water + Tween-80 90 % of control

c1ccc2c(Cc3csc4ccccc34)csc2c1
inactive: dose: 50.0 mg/kg/injection, schedule: Q01DX005 (ip), vehicle: distilled water + Tween-80 + alcohol 106 % of control | dose: 100.0 mg/kg/injection, schedule: Q01DX005 (ip), vehicle: distilled water + Tween-80 + alcohol 115 % of control | dose: 200.0 mg/kg/injection, schedule: Q01DX005 (ip), vehicle: distilled water + Tween-80 + alcohol 115 % of control

CC(=O)N/C(=C/c1ccccc1)C(=O)N/C(=C/c1ccccc1)C(=O)O
inactive: dose: 50.0 mg/kg/injection, schedule: Q01DX005 (ip), vehicle: Klucel (hydroxypropylcellulose) (HPC) 101 % of control | dose: 100.0 mg/kg/injection, schedule: Q01DX005 (ip), vehicle: Klucel (hydroxypropylcellulose) (HPC) 99 % of control | dose: 200.0 mg/kg/injection, schedule: Q01DX005 (ip), vehicle: Klucel (hydroxypropylcellulose) (HPC) 91 % of control

Cc1cc(COCCN(C)C)on1
inactive: [6] 97 % of control | [7] 104 % of control

COC1=C(Br)C(O)C2(C=C1Br)CC(C(=O)NCC(O)COc1c(Br)cc(C(O)CNC(=O)C3=NOC4(C=C(Br)C(OC)=C(Br)C4O)C3)cc1Br)=NO2 (centres undefined)
inactive: dose: 25.0 mg/kg/injection, schedule: Q01DX009 (ip), vehicle: saline + Tween-80 + alcohol 110 % of control | dose: 50.0 mg/kg/injection, schedule: Q01DX009 (ip), vehicle: saline + Tween-80 + alcohol 112 % of control and 92 % of control | dose: 100.0 mg/kg/injection, schedule: Q01DX009 (ip), vehicle: saline + Tween-80 + alcohol 112 % of control and 92 % of control | dose: 200.0 mg/kg/injection, schedule: Q01DX009 (ip), vehicle: saline + Tween-80 + alcohol 102 % of control

O=C1C(c2ccccc2)=C(c2ccccc2)C(=O)N1CCN1CCCC1
inactive: [6] 105 % of control | [7] 110 % of control | [8] 108 % of control

CC(=N/NC(=S)NCC(C)C)/C(C)=N\Nc1ccc(Cl)cc1
inactive: [1] 97 % of control | [2] 106 % of control | [3] 99 % of control

CCCCCCCCCCCCCC[N+](C)([O-])CCCCCC[N+](C)([O-])CCCCCCCCCCCCCC (centres undefined)
inactive: dose: 12.5 mg/kg/injection, schedule: Q01DX009 (ip), vehicle: Klucel (hydroxypropylcellulose) (HPC) 94 % of control | dose: 25.0 mg/kg/injection, schedule: Q01DX009 (ip), vehicle: Klucel (hydroxypropylcellulose) (HPC) 100 % of control | dose: 50.0 mg/kg/injection, schedule: Q01DX009 (ip), vehicle: Klucel (hydroxypropylcellulose) (HPC) 92 % of control and 93 % of control

O=C1OCCOCCOCCOC(=O)c2ccccc2SSc2ccccc21
inactive: [9] 90 % of control | [10] 97 % of control

COc1cc(C(c2cc3c(cc2O)OCO3)N2CCCCC2)cc(OC)c1OC (centres undefined)
inactive: [6] 111 % of control and 118 % of control and 123 % of control | [7] 111 % of control and 118 % of control | [8] 103 % of control | dose: 480.0 mg/kg/injection, schedule: Q01DX005 (ip), vehicle: saline with Tween-80 118 % of control

CCCOC(=O)Nc1ccc2c(c1)c1c3[nH]c(=O)c4cccn4c3ccc1n2CC
inactive: [9] 94 % of control | [10] 94 % of control

Cc1c2ccncc2c(CNCCO)c2c3ccccc3n(C)c12
inactive: dose: 5.0 mg/kg/injection, schedule: Q01DX005 (ip), vehicle: saline 110 % of control | dose: 10.0 mg/kg/injection, schedule: Q01DX005 (ip), vehicle: saline 108 % of control | dose: 20.0 mg/kg/injection, schedule: Q01DX005 (ip), vehicle: saline 110 % of control
